Data: patent US7880007B2, “Bicyclic substituted phenyl piperidine modulators of muscarinic receptors” (Vertex Pharmaceuticals Incorporated, priority 2004, dated 2011)

Key:
Format in all cases: cell-based
[1] = target: T1, M3 muscarinic receptor (Homo sapiens, UniProt P20309); assay: Functional mobilization of intracellular calcium (FLIPR), M3-CHO cells
T1 construct: expressed in transfected cells; host or cells: CHO (M3-CHO)
Method: Functional Mobilization of Intracellular Calcium to Determine Muscarinic Receptor Activity:
CHO cells expressing muscarinic receptors (M1 to M5) are grown as monolayers in tissue culture flasks at 37° C. in a humidified atmosphere containing 5% CO2 and passaged every 3-5 days. The growth media is Dulbecco's modified eagles medium (DMEM, Gibco Cat #12430-054), containing 25 mM Hepes and supplemented with Fetal Bovine Serum (Hyclone, cat #SH30071.03), 0.1 mM of MEM non-essential amino acids (GIBCO, Cat #11140-050), 1 mM MEM Sodium Pyruvate (GIBCO Cat #11360-070) and 100 units/ml of Penicillin G and 100 μg/ml of Streptomycin (GIBCO Cat #15140-122). The recombinant muscarinic receptor cell lines are grown under antibiotic pressure with media containing 25 μg/ml zeocin and 500 μg/ml G418 (M1-CHO), 4 μg/ml puromycin, 50 μg/ml zeocin and 2.5 μg/ml blasticidin (M2 and M4-CHO) or 50 μg/ml zeocin and 4 μg/ml puromycin (M3 and M5-CHO).
Cells are harvested at 80-90% confluence using Versene (GIBCO Cat #15040-066), collected by centrifugation and seeded 18-24 hrs prior to running the calcium assay at a density of 5,000-10,000 cells/well in […], clear-bottomed 384-well plates (BD Biocoat, poly-D-lysine, Cat #356663). The day of the experiment, the cells are washed with a plate washer (Bioteck Instruments, ELX 405) using bath 1 buffer (140-mM NaCl, 4.5-mM KCl, 2-mM CaCl2, 1-mM MgCl2, 10-mM Hepes-Na, 10-mM Glucose, pH 7.4, with NaOH) containing 1 mM Probenecid. Next, the calcium dye Fluo-3 (25 μl/well of Fluo-3 AM at 4 μM, Molecular Probes F-1241, in Bath 1 buffer containing 1 mM Probenecid) is added to the 25 μl of Bath 1 remaining in each well after the plate wash and the dye is loaded at 37° C. in the tissue culture incubator for 60-90 min. The fluorescent dye is removed using the plate washer with Bath 1 containing 1 mM Probenecid, leaving 25 μl/well of this solution after the wash. Alternatively, cells can be loaded with the calcium indicator from Molecular Devices (Calcium 3 Assay Reagents, Cat #R7181) adding 5 μl of a 5× solution dye in Bath 1 containing 1 mM Probenecid (10 ml per dye flask cat #R7182 to generate a solution 20×) to 20 μl of the same buffer. After loading for 60 min, the experiment can be run without having to remove the dye.
Compounds are prepared at a 2× fold concentration in a 96-well plate (round bottom, Costar Corning cat #3656), by reconstituting the pre-spotted compounds in bath 1 containing 1 mM probenecid. The final concentration DMSO is 0.5%, and the amount of DMSO is normalized across the assay plate. To determine an agonist action of the compounds on muscarinic receptors, the reconstituted compounds are added (25 μl compound/well) to the cell assay plate (containing 25 μl/well) using the multi-channel robotic system of the FLIPR 3 Instrument (Molecular Devices, Sunnyvale, Calif.). To determine a functional inhibitory action of the compounds on muscarinic receptors, the reconstituted compounds are added (25 μl compound/well) to the assay plate and pre-incubated for 15 min prior to adding 25 μl of Carbachol at 3× the EC80 for each muscarinic subtype. Alternatively, the compounds can be co-applied simultaneously with the agonist. In both assay modes, the fluorescence is recorded for 60 sec (excitation wavelength is […] and emission wavelength 540 nm) using the FLIPR 3 instrument.
The potency, efficacy and selectivity of the muscarinic compounds were evaluated by screening the compound activity across the whole family (M1 to M5 cells). Compounds were also screened for activity on other proteins such as other GPCRs and ion channels to determine selectivity on M4 receptors.
Examples of activities and efficacies of the muscarinic compounds of formulae (I, Ia, Ib, and II) on modulating M1, M2, M3 and M4 receptors are shown below in Table 3. […]

[2] = target: T2, M1 muscarinic receptor (Homo sapiens, UniProt P11229); assay: Functional mobilization of intracellular calcium (FLIPR), M1-CHO cells; conditions: for M1 Activity: M1-CHO cells, calcium mobilization (FLIPR)
T2 construct: expressed in transfected cells; host or cells: CHO (M1-CHO)
T2 sequence (P11229 1-460): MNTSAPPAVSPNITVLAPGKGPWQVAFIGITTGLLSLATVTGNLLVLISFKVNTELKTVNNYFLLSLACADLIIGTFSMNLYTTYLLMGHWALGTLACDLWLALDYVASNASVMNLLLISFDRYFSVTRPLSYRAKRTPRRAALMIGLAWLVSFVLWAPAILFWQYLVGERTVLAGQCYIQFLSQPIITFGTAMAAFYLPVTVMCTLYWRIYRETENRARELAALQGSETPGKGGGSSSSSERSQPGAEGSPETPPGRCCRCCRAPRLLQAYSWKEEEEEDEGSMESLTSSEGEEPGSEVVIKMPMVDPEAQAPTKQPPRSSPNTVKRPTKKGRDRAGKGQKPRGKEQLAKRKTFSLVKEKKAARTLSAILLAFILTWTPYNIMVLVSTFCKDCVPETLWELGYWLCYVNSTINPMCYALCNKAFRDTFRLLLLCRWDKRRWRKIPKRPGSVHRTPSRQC
How it was run: (§1)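 FLIPR fluorescence (ex 488, em 540 nm) recorded 60 sec after compound addition to dye-loaded CHO cells. Agonist mode: compound alone. Antagonist mode: 15 min compound pre-incubation, then carbachol at EC80, or co-application. Efficacy expressed as % of maximal carbachol response.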

[3] = target: T3, M2 muscarinic receptor (Homo sapiens, UniProt P08172); assay: Functional mobilization of intracellular calcium (FLIPR), M2-CHO cells; conditions: for M2 Activity: M2-CHO cells, calcium mobilization (FLIPR)
T3 construct: expressed in transfected cells; host or cells: CHO (M2-CHO)
T3 sequence (P08172 1-466): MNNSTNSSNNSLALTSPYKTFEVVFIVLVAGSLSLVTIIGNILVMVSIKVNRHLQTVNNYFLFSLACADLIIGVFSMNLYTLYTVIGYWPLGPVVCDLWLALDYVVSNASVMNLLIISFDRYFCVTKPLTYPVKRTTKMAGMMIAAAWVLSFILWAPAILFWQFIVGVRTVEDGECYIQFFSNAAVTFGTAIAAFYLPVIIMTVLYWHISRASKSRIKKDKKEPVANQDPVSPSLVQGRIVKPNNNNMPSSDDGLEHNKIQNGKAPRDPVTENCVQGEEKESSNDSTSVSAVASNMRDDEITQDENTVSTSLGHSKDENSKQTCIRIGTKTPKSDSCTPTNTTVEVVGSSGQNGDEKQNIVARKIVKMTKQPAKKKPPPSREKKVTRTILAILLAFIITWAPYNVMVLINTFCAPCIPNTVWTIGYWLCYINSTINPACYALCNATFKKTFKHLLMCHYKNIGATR
How it was run: as §1

[4] = target: T4, M4 muscarinic receptor (Homo sapiens, UniProt P08173); assay: Functional mobilization of intracellular calcium (FLIPR), M4-CHO cells; conditions: for M4 Activity: M4-CHO cells, calcium mobilization (FLIPR)
T4 construct: expressed in transfected cells; host or cells: CHO (M4-CHO)
T4 sequence (P08173 1-479): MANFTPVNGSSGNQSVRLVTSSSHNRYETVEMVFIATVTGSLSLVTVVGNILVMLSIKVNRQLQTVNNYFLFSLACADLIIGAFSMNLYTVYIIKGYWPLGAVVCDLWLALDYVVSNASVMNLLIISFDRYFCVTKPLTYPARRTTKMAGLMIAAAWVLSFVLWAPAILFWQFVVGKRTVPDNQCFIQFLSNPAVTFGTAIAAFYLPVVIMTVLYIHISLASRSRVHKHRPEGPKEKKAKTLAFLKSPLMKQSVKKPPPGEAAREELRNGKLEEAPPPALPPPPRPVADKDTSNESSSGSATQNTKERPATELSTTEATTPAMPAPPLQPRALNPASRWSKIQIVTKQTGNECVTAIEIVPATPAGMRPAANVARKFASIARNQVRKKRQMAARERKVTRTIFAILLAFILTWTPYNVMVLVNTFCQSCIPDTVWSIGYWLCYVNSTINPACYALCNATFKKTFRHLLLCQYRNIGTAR
How it was run: as §1

[5] = 100% efficacy = maximum response obtained with the Carbachol control
[6] = 100% efficacy is the maximum response obtained with the Carbachol control

T1 sequence (P20309 whole entry): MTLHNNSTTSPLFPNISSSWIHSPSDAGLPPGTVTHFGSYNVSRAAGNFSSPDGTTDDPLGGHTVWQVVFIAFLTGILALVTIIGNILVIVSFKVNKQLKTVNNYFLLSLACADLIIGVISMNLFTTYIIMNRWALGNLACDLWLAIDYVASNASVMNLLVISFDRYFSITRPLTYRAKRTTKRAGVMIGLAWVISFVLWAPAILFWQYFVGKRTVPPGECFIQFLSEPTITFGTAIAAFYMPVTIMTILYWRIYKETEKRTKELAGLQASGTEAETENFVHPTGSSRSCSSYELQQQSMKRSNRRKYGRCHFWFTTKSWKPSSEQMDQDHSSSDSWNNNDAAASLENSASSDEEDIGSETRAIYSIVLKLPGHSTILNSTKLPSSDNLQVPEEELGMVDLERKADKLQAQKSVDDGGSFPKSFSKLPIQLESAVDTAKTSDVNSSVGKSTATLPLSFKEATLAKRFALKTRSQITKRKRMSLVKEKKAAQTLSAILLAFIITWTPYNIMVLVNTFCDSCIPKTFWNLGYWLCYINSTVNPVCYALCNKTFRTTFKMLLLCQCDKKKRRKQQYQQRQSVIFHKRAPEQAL

| Compound | Emax [1, 5] [%] | M3 Activity ([1]; M3-CHO cells, calcium mobilization (FLIPR)) | Emax [2, 5] [%] | M1 Activity [2] | Emax [3, 5] [%] | M2 Activity [3] | Emax [4, 5] [%] | M4 Activity [4] | Emax [2, 6] [%] | Emax [3, 6] [%] | Emax [4, 6] [%] |
| --- | --- | --- | --- | --- | --- | --- | --- | --- | --- | --- | --- |
| Fc1ccccc1-c1ccccc1C1CCN(C2CC3CC[C@H]2C3)CC1 (stereo in doubt) [Compound 10, 1-((1S,2R,4R)-bicyclo[2.2.1]heptan-2-yl)-4-(2′-fluorobiphenyl-2-yl)piperidine] | < 25 | + (activity was measured to be greater than 5.0 μM) | < 25 | + (activity was measured to be greater than 5.0 μM) | 25 to 100 | + (activity was measured to be greater than 5.0 μM) | 25 to 100 | ++ (activity was measured to be from 1.0 μM to 5.0 μM) | – | – | – |
| CCOC(=O)N1[C@@H]2CC[C@@H]1CC(N1CCC(c3cc(NC(C)=O)ccc3OC)CC1)C2 (some centres unmarked) [Compound 338] | – | – | 25 to 100 | – | < 25 | – | 25 to 100 | – | – | – | – |
| COc1ccc(OC)c(C2CCN(CC3C[C@H]4CC[C@H]3C4)CC2)c1 (some centres unmarked) [Compound 344] | – | – | < 25 | + (activity was measured to be greater than 5.0 μM) | < 25 | + (activity was measured to be greater than 5.0 μM) | 25 to 100 | ++ (activity was measured to be from 1.0 μM to 5.0 μM) | – | – | – |
| COc1ccccc1C1(C#N)CCN(C2CCCCC2)CC1 [Compound 348] | – | – | 25 to 100 | + (activity was measured to be greater than 5.0 μM) | < 25 | + (activity was measured to be greater than 5.0 μM) | 25 to 100 | ++ (activity was measured to be from 1.0 μM to 5.0 μM) | – | – | – |
| COc1ccccc1C1(C#N)CCN(C[C@@H]2C[C@H]3C=C[C@H]2C3)CC1 [Compound 359] | – | – | 25 to 100 | ++ (activity was measured to be from 1.0 μM to 5.0 μM) | 25 to 100 | ++ (activity was measured to be from 1.0 μM to 5.0 μM) | 25 to 100 | +++ (activity was measured to be less than 1.0 μM) | – | – | – |
| COc1ccccc1C1(C#N)CCN(C2CCOCC2)CC1 [Compound 379] | – | – | – | + (activity was measured to be greater than 5.0 μM) | – | + (activity was measured to be greater than 5.0 μM) | – | + (activity was measured to be greater than 5.0 μM) | < 25 | < 25 | < 25 |
| COc1ccc(Cl)cc1C1(O)CCN(C2CCCCCC2)CC1 [Compound 380] | – | – | – | + (activity was measured to be greater than 5.0 μM) | – | + (activity was measured to be greater than 5.0 μM) | – | ++ (activity was measured to be from 1.0 μM to 5.0 μM) | < 25 | < 25 | 25 to 100 |
| Cc1ccc(F)cc1C1CCN(C2C[C@H]3CC[C@H](C2)C3)CC1 (some centres unmarked) [Compound 385] | – | – | – | ++ (activity was measured to be from 1.0 μM to 5.0 μM) | – | + (activity was measured to be greater than 5.0 μM) | – | +++ (activity was measured to be less than 1.0 μM) | 25 to 100 | < 25 | 25 to 100 |
| COc1ccc(F)cc1C1CCN(C2CCC3CCC2C3)CC1 (centres unmarked) [Compound 412] | – | – | – | +++ (activity was measured to be less than 1.0 μM) | – | ++ (activity was measured to be from 1.0 μM to 5.0 μM) | – | +++ (activity was measured to be less than 1.0 μM) | 25 to 100 | < 25 | 25 to 100 |
| COc1ccccc1C1(C#N)CCN(C2CC3CCC(C3)C2)CC1 (centres unmarked) [Compound 421] | – | – | – | ++ (activity was measured to be from 1.0 μM to 5.0 μM) | – | ++ (activity was measured to be from 1.0 μM to 5.0 μM) | – | +++ (activity was measured to be less than 1.0 μM) | 25 to 100 | < 25 | 25 to 100 |
